Here are results for four compounds from patent US20040077617A1, “Fused cycloalkyl amides and acids and their therapeutic applications” (priority 2002, published 2004).

Data set [1] concerns CD-1 mice. Nature of the data set: Maximal Electroshock Procedure (protection from tonic seizures). The data set is classed as in vivo. The note with it: Mus musculus, po; maximal electroshock (50 mA, 0.4 second, corneal electrodes); male CD-1 mice; p.o. 30 minutes prior to stimulation; PROBIT analysis; read-out: ED50 (dose at which 50% of the mice were protected from tonic seizures). The procedure:
(§1) Adult, male, CD-1 mice (22-25 grams) were obtained from Charles River Laboratories (Portage, Mich.) and housed at Abbott Laboratories (Abbott Park) under standard lighting conditions of 12 hours on/12 hours off, with lights on at 6 a.m. Food and water were provided ad libitum and mice weighed 25-35 grams at the time of testing.
(§2) Compounds were prepared for oral administration by suspending them in a vehicle of 100 μL Tween® 80 per mL hydroxypropyl methylcellulose (2 mg/mL, Abbott Laboratories). Compound solutions were administered at a volume of 10 mL/kg, p.o.
Maximal Electroshock Procedure:
The method used was similar to that of E.A. Swinyard, General principles: Experimental selection, quantification and evaluation of anti-convulsants, Anti-epileptic Drugs, Third Edition, R. Levey, et al., Editors. 1989, Raven Press Ltd: New York. Mice were pretreated orally with compounds of the present invention 30 minutes prior to electrical stimulation. Electrical stimulation consisted of pulsed electrical current (50 mA, 0.4 second duration, pulse width 0.5 msec, 60 pulses/sec) applied via corneal electrodes to induce seizure. The stimulation was delivered with an ECT Unit (Ugo Basile #7801). […] The percent protection from tonic seizures was calculated by dividing the number of protected mice by the total number in the group. […]
On the technique in general: In the maximal electroshock model the usual endpoint is tonic extension of the hind limbs.

For data set [2], the system named is CD-1 mice. Briefly: Subcutaneous pentylenetetrazole (PTZ) Seizure Procedure. The data set is classed as in vivo. The conditions noted are these: Mus musculus; subcutaneous PTZ 85 mg/kg; male CD-1 mice; p.o. 30 minutes prior to PTZ; observed 15 minutes; linear regression; read-out: ED50 (dose at which 50% of the mice were protected from tonic seizures). The procedure:
as §1, §2
Subcutaneous pentylenetetrazole (PTZ) Seizure Procedure:
The method used was similar to that of E. A. Swinyard, General principles: Experimental selection, quantification and evaluation of anti-convulsants, Anti-epileptic Drugs, Third Edition, R. Levey, et al., Editors. 1989, Raven Press Ltd: New York. During the experiment the mice were housed individually in clear polycarbonate cages for observation. […] Seizures were induced by the subcutaneous injection of pentylenetetrazole (PTZ, 85 mg/kg) just below the nape of the neck. […] A total of 20 mice were used in each group. The ED50for the compounds were calculated using linear regression and represent the dose at which 50% of the mice were protected from tonic seizures.

The structures appear in SMILES notation.

As a reminder, the melting point is the temperature of the solid-liquid transition. `CC1(C)[C@@H]2CC3[C@H](C(=O)NCC(N)=O)[C@@]3(C)C[C@@H]21` (stereo partly drawn) [Example 4, (1S,3S,4S,7R)-N-(2-amino-2-oxoethyl)-3,8,8-trimethyltricyclo[5.1.0.0^3,5]octane-4-carboxamide] yielded a melting point of 169.2 to 169.7 °C.
The ED50 is the dose that gives a 50% effect, or the effect in half of the subjects. Regarding `CCCC(CCC)C(=O)O` [Valproate], the ED50 in the data set with CD-1 mice [1] stood at 1200 µmol/kg; in the data set on CD-1 mice [2], 1800 µmol/kg.
With `CC1(C)[C@@H]2CC3[C@H](C(=O)O)[C@@]3(C)C[C@@H]21` (stereo partly drawn) (hydrate or solvate) [Example 1, (1S,3S,4S,7R)-3,8,8-trimethyltricyclo[5.1.0.0^3,5]octane-4-carboxylic acid], the melting point turned out to be 86 °C.
`CC1(C)[C@@H]2CC3[C@H](C(N)=O)[C@@]3(C)C[C@@H]21` (stereo partly drawn) [Example 3, (1S,3S,4S,7R)-3,8,8-trimethyltricyclo[5.1.0.0^3,5]octane-4-carboxamide] came in with a melting point of 121.5 to 122.5 °C.
